Assay results as given in paper PMC6298744 (Biochemical pharmacology, 2018).

Assays:
5-HT2C receptor [1] = biological target: T1, 5-HT2C receptor (Homo sapiens, UniProt P28335); conditions: read-out: affinity of [^125I]DOI binding sites, h5-HT2C; HEK-5-HT2C; radioligand affinity
T1 sequence (P28335 33-458): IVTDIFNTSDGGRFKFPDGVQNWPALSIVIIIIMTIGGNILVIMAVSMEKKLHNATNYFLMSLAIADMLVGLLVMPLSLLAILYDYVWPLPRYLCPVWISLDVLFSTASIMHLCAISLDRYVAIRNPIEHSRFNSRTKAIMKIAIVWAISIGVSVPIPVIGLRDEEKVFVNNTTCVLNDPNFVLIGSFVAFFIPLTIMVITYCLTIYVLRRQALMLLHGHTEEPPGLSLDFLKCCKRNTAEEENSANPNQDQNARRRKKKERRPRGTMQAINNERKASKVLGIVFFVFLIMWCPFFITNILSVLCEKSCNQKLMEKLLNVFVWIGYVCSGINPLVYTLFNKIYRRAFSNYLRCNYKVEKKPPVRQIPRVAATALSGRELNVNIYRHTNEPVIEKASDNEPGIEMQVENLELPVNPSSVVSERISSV

[2] = Human blood concentrations after ingestion; conditions: converted from cited ng/ml values
[3] = cited from earlier work
hDAT [4] = biological target: T2, hDAT (Homo sapiens, UniProt Q01959); experiment: Inhibition of [^3H]DA uptake by HEK-hDAT cells; format: cell-based
T2 sequence (Q01959 whole entry): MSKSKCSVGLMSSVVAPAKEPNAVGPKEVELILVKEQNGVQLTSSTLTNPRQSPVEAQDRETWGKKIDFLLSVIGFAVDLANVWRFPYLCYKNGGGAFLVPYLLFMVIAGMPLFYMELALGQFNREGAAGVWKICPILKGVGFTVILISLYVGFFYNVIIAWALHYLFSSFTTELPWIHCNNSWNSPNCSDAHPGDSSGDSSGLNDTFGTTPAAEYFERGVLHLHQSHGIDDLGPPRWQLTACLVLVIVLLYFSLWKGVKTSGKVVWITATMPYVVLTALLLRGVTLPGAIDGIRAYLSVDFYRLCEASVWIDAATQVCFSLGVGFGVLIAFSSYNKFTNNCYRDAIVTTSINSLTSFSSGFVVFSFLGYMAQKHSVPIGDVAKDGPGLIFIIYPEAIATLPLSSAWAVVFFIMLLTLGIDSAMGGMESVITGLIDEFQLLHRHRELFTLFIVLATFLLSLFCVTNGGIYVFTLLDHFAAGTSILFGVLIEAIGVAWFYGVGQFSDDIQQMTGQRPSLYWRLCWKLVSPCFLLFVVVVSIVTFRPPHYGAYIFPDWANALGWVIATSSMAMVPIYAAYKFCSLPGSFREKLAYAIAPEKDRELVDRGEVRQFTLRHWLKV

5-HT2A receptor [5] = biological target: T3, 5-HT2A receptor (Homo sapiens, UniProt P28223); experiment: cell-based; format: cell-based
T3 sequence (P28223 whole entry): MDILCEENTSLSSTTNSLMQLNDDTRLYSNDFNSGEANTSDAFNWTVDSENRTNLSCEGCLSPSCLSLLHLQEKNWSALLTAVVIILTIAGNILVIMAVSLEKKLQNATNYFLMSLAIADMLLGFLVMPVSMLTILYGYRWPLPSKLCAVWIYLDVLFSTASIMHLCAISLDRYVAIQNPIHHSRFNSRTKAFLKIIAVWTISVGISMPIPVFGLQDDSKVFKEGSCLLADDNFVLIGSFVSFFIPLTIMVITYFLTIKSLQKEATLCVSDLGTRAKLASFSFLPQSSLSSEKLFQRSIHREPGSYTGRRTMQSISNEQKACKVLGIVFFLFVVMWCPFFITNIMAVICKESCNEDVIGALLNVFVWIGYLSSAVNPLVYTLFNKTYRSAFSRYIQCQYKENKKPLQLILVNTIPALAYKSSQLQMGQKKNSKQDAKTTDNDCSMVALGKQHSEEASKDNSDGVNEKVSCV

5-HT2B receptor [6] = biological target: T4, 5-HT2B receptor (Homo sapiens, UniProt P41595); experiment: 5-HT2B receptor [^3H]5-HT binding
T4 sequence (P41595 whole entry): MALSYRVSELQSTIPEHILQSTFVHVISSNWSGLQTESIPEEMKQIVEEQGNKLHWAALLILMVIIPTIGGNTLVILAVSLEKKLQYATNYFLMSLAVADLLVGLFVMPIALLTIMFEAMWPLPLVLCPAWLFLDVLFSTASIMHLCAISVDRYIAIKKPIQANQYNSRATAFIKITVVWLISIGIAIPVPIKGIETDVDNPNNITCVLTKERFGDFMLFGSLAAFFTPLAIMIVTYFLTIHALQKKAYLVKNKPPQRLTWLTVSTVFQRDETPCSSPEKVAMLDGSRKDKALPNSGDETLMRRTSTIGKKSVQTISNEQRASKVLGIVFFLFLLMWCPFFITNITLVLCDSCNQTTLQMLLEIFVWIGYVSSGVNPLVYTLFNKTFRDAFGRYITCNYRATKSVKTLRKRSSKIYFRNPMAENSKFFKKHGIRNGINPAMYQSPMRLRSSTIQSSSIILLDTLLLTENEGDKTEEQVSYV

hSERT [7] = biological target: T5, hSERT (Homo sapiens, UniProt P31645); experiment: Inhibition of [^125I]RTI-55 binding to hSERT
T5 sequence (P31645 whole entry): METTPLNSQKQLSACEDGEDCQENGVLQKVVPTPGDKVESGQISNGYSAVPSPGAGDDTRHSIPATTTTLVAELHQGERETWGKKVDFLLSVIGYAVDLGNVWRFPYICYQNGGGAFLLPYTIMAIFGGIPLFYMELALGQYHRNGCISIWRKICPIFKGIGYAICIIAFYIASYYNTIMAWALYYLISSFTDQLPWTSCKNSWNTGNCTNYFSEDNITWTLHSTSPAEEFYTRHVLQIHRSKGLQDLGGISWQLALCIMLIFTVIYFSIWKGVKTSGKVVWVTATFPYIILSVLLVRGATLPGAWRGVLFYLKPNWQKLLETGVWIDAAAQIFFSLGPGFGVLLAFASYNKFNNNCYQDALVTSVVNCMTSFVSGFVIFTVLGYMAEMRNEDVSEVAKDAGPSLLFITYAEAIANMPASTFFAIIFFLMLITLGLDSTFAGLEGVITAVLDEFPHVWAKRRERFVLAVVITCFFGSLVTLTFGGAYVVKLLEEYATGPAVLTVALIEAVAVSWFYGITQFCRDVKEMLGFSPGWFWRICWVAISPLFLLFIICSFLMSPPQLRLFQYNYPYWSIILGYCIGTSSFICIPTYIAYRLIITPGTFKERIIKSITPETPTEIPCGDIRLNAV

5-HT2B receptor [8] = biological target: T4, 5-HT2B receptor; experiment: 5-HT2B receptor inositol monophosphate; format: cell-based
5-HT2A receptor [9] = biological target: T3, 5-HT2A receptor; experiment: biochemical; format: binding
hNET [10] = biological target: T6, hNET (Homo sapiens, UniProt P23975); experiment: Release of preloaded [^3H]NE from HEK-hNET cells; format: cell-based
T6 sequence (P23975 whole entry): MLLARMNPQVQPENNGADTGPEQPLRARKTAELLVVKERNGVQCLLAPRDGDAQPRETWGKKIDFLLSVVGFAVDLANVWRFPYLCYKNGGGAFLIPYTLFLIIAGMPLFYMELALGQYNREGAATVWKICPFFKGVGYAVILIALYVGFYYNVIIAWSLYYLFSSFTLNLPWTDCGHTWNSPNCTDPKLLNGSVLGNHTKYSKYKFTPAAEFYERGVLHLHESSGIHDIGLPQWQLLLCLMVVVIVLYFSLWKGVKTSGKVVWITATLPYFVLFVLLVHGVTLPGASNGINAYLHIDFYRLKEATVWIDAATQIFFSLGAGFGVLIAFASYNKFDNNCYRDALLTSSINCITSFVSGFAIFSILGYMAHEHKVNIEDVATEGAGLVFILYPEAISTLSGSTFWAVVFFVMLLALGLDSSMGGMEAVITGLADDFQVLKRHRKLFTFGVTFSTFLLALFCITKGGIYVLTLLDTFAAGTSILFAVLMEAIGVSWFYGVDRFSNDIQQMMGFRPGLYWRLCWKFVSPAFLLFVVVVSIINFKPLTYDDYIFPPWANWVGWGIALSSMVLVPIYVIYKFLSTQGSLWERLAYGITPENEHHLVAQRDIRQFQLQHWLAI

5-HT2C receptor [11] = biological target: T1, 5-HT2C receptor; experiment: cell-based
hDAT [12] = biological target: T2, hDAT; experiment: Inhibition of [^125I]RTI-55 binding to hDAT
hSERT [13] = biological target: T5, hSERT; experiment: Release of preloaded [^3H]5-HT from HEK-hSERT cells; format: cell-based
hNET [14] = biological target: T6, hNET; experiment: biochemical; format: binding
hDAT [15] = biological target: T2, hDAT; experiment: Release of preloaded [^3H]DA from HEK-hDAT cells; format: cell-based
human 5-HT1A receptor = biological target: T7, human 5-HT1A receptor (Homo sapiens, UniProt P08908); experiment: 5-HT1A receptor [^35S]GTPγS binding stimulation; format: biochemical
T7 sequence (P08908 1-422): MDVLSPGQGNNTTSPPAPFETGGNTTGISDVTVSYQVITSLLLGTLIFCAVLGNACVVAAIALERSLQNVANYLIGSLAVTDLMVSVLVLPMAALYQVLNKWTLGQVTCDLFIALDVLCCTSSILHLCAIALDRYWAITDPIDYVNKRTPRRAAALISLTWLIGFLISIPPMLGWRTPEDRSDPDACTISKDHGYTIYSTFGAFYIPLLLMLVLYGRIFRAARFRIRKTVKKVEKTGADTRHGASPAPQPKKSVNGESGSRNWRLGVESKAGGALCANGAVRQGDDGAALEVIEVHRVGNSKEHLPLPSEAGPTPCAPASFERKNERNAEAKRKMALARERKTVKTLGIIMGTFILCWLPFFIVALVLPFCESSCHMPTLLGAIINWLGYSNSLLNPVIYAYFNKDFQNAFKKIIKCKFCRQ

hNET [16] = biological target: T6, hNET; experiment: cell-based
hSERT [17] = biological target: T5, hSERT; experiment: Inhibition of [^3H]5-HT uptake by HEK-hSERT cells; format: cell-based
[18] = taken hours after ingestion; cited from earlier work
hNET [19] = biological target: T6, hNET; conditions: read-out: affinity of [^125I]RTI-55 binding sites, NET; HEK-hNET; cited from earlier work
hDAT [20] = biological target: T2, hDAT; conditions: read-out: affinity of [^125I]RTI-55 binding sites, DAT; HEK-hDAT; cited from earlier work

COc1cc(CC(C)N)c(OC)cc1I (stereo not drawn) [[^125I]DOI, [^125I]2,5-dimethoxy-4-iodoamphetamine]
Kd (5-HT2C receptor [1]): 4.18 nM

COc1cc(CCNCc2ccccc2OC)c(OC)cc1I [25I-NBOMe]
blood concentration (molar) [2]: ~ 8 nM | Postmortem brain tissue concentration [3]: 2.54 ng/g | Postmortem peripheral blood concentration [3]: 0.405 ng/mL

COc1ccc(OC)c(CCNCc2ccccc2OC)c1 [25H-NBOMe, 2-(2,5-dimethoxyphenyl)-N-(2-methoxybenzyl)ethanamine]
IC50 (hDAT [4]): > 100000 nM | EC50 (5-HT2A receptor [5]; EC50, 5-HT2A stimulation of IP-1 formation, mean ± sem): 40.7 ± 8.1 nM | Selectivity (functional ratios) 5-HT2A: 5-HT1A (5-HT2A receptor [5]; ratio of EC50 values): 700 | Selectivity (functional ratios) 5-HT2A: 5-HT2B (5-HT2A receptor [5]; ratio of EC50 values): 11 | Selectivity (functional ratios) 5-HT2A: 5-HT2C (5-HT2A receptor [5]; ratio of EC50 values): 0.34 | Emax (5-HT2A receptor [5]; read-out: % maximum stimulation, 5-HT2A stimulation of IP-1 formation): 85.9% | Ki (5-HT2B receptor [6]): 62.9 ± 7.5 nM | Ki (hSERT [7]): 2220 ± 340 nM | EC50 (5-HT2B receptor [8]): 463 ± 71 nM | Emax (5-HT2B receptor [8]; read-out: % maximum stimulation, 5-HT2B stimulation of IP-1 formation): 37.7% | Ki (5-HT2A receptor [9]): 4.9 ± 1.3 nM | Selectivity (binding ratios) 5-HT2A : 5-HT1A (5-HT2A receptor [9]; ratio of Ki values): 920 | Selectivity (binding ratios) 5-HT2A : 5-HT2B (5-HT2A receptor [9]; ratio of Ki values): 13 | Selectivity (binding ratios) 5-HT2A : 5-HT2C (5-HT2A receptor [9]; ratio of Ki values): 3.3 | blood concentration (molar) [2]: ~ 0.9 nM | EC50 (hNET [10]): > 66000 nM | % maximum release, hNET [^3H]NE (hNET [10]; relative to maximum release induced by METH (0.3–1 μM)): 21 ± 12% | EC50 (5-HT2C receptor [11]): 13.8 ± 2.6 nM | Emax (5-HT2C receptor [11]; read-out: % maximum stimulation, 5-HT2C stimulation of IP-1 formation): 95.5% | Ki (hDAT [12]): 81400 ± 8900 nM | EC50 (hSERT [13]): > 100000 nM | % maximum release, hSERT [^3H]5-HT (hSERT [13]; relative to maximum release induced by METH (0.3–1 mM)): −0.27 ± 0.49% | Ki (hNET [14]): 16300 ± 2600 nM | EC50 (hDAT [15]): > 100000 nM | % maximum release, hDAT [^3H]DA (hDAT [15]; relative to maximum release induced by METH (1–10 μM)): −0.18 ± 0.26% | EC50 (human 5-HT1A receptor): 28400 ± 8600 nM | Emax (human 5-HT1A receptor; read-out: % maximum stimulation, 5-HT1A stimulation of [^35S]GTPγS binding): 52% | IC50 (hNET [16]): 3650 ± 880 nM | IC50 (hSERT [17]): 2080 ± 310 nM | Human blood concentration [18]: 0.29 ng/mL

COC(=O)[C@H]1[C@@H](c2ccc(I)cc2)CC2CC[C@H]1N2C [[^125I]RTI-55, [^125I]methyl (1R,2S,3S)-3-(4-iodophenyl)-8-methyl-8-azabicyclo[3.2.1]octane-2-carboxylate]
Kd (hNET [19]): 12.1 nM | Kd (hDAT [20]): 1.83 nM
